In the NIST ThermoML archive (doi:10.1021/je300873x):

Test: mn = molality of the nth substance listed, in mol/kg
Conditions: for surface tension liquid-gas: Pendant drop shape; for electrical conductivity: Liquid, Digital conductivity meter

CCCCCCCCCCCC[N+](C)(C)CCO.[Br-] [dodecyl(2-hydroxyethyl)dimethylammonium bromide] + O
Conditions | electrical conductivity [S/m] | surface tension liquid-gas [mN/m]
298.15 K, m1 = 0.001 | – | 68.12
298.15 K, m1 = 0.00201 | – | 63.05
298.15 K, m1 = 0.00402 | – | 54.51
298.15 K, m1 = 0.00602 | – | 49.15
298.15 K, m1 = 0.00803 | – | 45.74
298.15 K, m1 = 0.00949 | 0.0809 | –
298.15 K, m1 = 0.00996 | 0.0847 | –
298.15 K, m1 = 0.01004 | – | 42.61
298.15 K, m1 = 0.01049 | 0.0889 | –
298.15 K, m1 = 0.01107 | 0.0935 | –
298.15 K, m1 = 0.01172 | 0.0987 | –
298.15 K, m1 = 0.01205 | – | 39.74
298.15 K, m1 = 0.01246 | 0.1047 | –
298.15 K, m1 = 0.01286 | 0.1079 | –
298.15 K, m1 = 0.01305 | – | 38.84
298.15 K, m1 = 0.01329 | 0.111 | –
298.15 K, m1 = 0.01375 | 0.1138 | –
298.15 K, m1 = 0.01424 | 0.116 | –
298.15 K, m1 = 0.01476 | 0.1177 | –
298.15 K, m1 = 0.01506 | – | 38.78
298.15 K, m1 = 0.01533 | 0.1196 | –
298.15 K, m1 = 0.01595 | 0.121 | –
298.15 K, m1 = 0.01661 | 0.1226 | –
298.15 K, m1 = 0.01707 | – | 38.7
298.15 K, m1 = 0.01733 | 0.1248 | –
298.15 K, m1 = 0.01812 | 0.1264 | –
298.15 K, m1 = 0.01899 | 0.1281 | –
298.15 K, m1 = 0.01994 | 0.1302 | –
298.15 K, m1 = 0.02009 | – | 38.51
298.15 K, m1 = 0.03014 | – | 38.4
298.15 K, m1 = 0.05027 | – | 38.38
303.15 K, m1 = 0.00945 | 0.0886 | –
303.15 K, m1 = 0.00992 | 0.093 | –
303.15 K, m1 = 0.01045 | 0.0974 | –
303.15 K, m1 = 0.01103 | 0.1025 | –
303.15 K, m1 = 0.01168 | 0.1068 | –
303.15 K, m1 = 0.01241 | 0.1148 | –
303.15 K, m1 = 0.01281 | 0.1182 | –
303.15 K, m1 = 0.01324 | 0.1212 | –
303.15 K, m1 = 0.01369 | 0.1246 | –
303.15 K, m1 = 0.01418 | 0.128 | –
303.15 K, m1 = 0.01471 | 0.1306 | –
303.15 K, m1 = 0.01527 | 0.1326 | –
303.15 K, m1 = 0.01589 | 0.1346 | –
303.15 K, m1 = 0.01655 | 0.1364 | –
303.15 K, m1 = 0.01727 | 0.1386 | –
303.15 K, m1 = 0.01805 | 0.1407 | –
303.15 K, m1 = 0.01892 | 0.1431 | –
303.15 K, m1 = 0.01986 | 0.1451 | –
308.15 K, m1 = 0.00993 | 0.1022 | –
308.15 K, m1 = 0.01046 | 0.1072 | –
308.15 K, m1 = 0.01104 | 0.112 | –
308.15 K, m1 = 0.01169 | 0.1179 | –
308.15 K, m1 = 0.01242 | 0.1251 | –
308.15 K, m1 = 0.01282 | 0.1293 | –
308.15 K, m1 = 0.01325 | 0.1334 | –
308.15 K, m1 = 0.0137 | 0.1371 | –
308.15 K, m1 = 0.01419 | 0.1408 | –
308.15 K, m1 = 0.01472 | 0.1443 | –
308.15 K, m1 = 0.01529 | 0.1472 | –
308.15 K, m1 = 0.0159 | 0.1496 | –
308.15 K, m1 = 0.01656 | 0.152 | –
308.15 K, m1 = 0.01728 | 0.1541 | –
308.15 K, m1 = 0.01807 | 0.1567 | –
308.15 K, m1 = 0.01893 | 0.1595 | –
308.15 K, m1 = 0.01987 | 0.1621 | –
313.15 K, m1 = 0.01044 | 0.1171 | –
313.15 K, m1 = 0.01102 | 0.1229 | –
313.15 K, m1 = 0.01167 | 0.1298 | –
313.15 K, m1 = 0.0124 | 0.1376 | –
313.15 K, m1 = 0.0128 | 0.1416 | –
313.15 K, m1 = 0.01322 | 0.1461 | –
313.15 K, m1 = 0.01368 | 0.1507 | –
313.15 K, m1 = 0.01417 | 0.1556 | –
313.15 K, m1 = 0.01469 | 0.1595 | –
313.15 K, m1 = 0.01526 | 0.1638 | –
313.15 K, m1 = 0.01587 | 0.1664 | –
313.15 K, m1 = 0.01653 | 0.1694 | –
313.15 K, m1 = 0.01725 | 0.1723 | –
313.15 K, m1 = 0.01803 | 0.1749 | –
313.15 K, m1 = 0.01889 | 0.1783 | –
313.15 K, m1 = 0.01984 | 0.1813 | –
318.15 K, m1 = 0.01042 | 0.127 | –
318.15 K, m1 = 0.01099 | 0.134 | –
318.15 K, m1 = 0.01164 | 0.1411 | –
318.15 K, m1 = 0.01237 | 0.1496 | –
318.15 K, m1 = 0.01277 | 0.1543 | –
318.15 K, m1 = 0.01319 | 0.1592 | –
318.15 K, m1 = 0.01365 | 0.1643 | –
318.15 K, m1 = 0.01414 | 0.1694 | –
318.15 K, m1 = 0.01466 | 0.174 | –
318.15 K, m1 = 0.01523 | 0.1791 | –
318.15 K, m1 = 0.01583 | 0.1838 | –
318.15 K, m1 = 0.01649 | 0.1877 | –
318.15 K, m1 = 0.01721 | 0.1908 | –
318.15 K, m1 = 0.018 | 0.1933 | –
318.15 K, m1 = 0.01885 | 0.1973 | –
318.15 K, m1 = 0.0198 | 0.2012 | –
323.15 K, m1 = 0.01039 | 0.1354 | –
323.15 K, m1 = 0.01097 | 0.1447 | –
323.15 K, m1 = 0.01162 | 0.1524 | –
323.15 K, m1 = 0.01234 | 0.1613 | –
323.15 K, m1 = 0.01274 | 0.1661 | –
323.15 K, m1 = 0.01317 | 0.1716 | –
323.15 K, m1 = 0.01362 | 0.1773 | –
323.15 K, m1 = 0.01411 | 0.1832 | –
323.15 K, m1 = 0.01463 | 0.1896 | –
323.15 K, m1 = 0.01519 | 0.1954 | –
323.15 K, m1 = 0.0158 | 0.2012 | –
323.15 K, m1 = 0.01646 | 0.2061 | –
323.15 K, m1 = 0.01717 | 0.21 | –
323.15 K, m1 = 0.01795 | 0.2148 | –
323.15 K, m1 = 0.01881 | 0.2187 | –
323.15 K, m1 = 0.01975 | 0.2216 | –
